Source: US20260258035A1, “FIVE-MEMBERED AND SIX-MEMBERED NITROGEN-CONTAINING COMPOUND, AND INTERMEDIATE, PREPARATION METHOD AND USE THEREOF” (HANGZHOU SYNRX THERAPEUTICS BIOMEDICAL TECHNOLOGY CO., LTD., priority 2022, published 2026)
Read-outs that look alike come from different tables or passages of the source.

Columns and labels:
[1] = molecular target: PARG (Homo sapiens, UniProt Q86W56); experiment: Biochemical assay (PARG, TFMU-ADPr substrate)
[2] = molecular target: T1, PXR (Homo sapiens, UniProt O75469); experiment: PXR assay (DPX2 luciferase reporter cells); format: cell-based; conditions: 24 h; for PXR Activation @30 uM (% Ctrl): positive control rifampicin
T1 construct: host or cells: DPX2 (HepG2)
T1 sequence (O75469 1-434): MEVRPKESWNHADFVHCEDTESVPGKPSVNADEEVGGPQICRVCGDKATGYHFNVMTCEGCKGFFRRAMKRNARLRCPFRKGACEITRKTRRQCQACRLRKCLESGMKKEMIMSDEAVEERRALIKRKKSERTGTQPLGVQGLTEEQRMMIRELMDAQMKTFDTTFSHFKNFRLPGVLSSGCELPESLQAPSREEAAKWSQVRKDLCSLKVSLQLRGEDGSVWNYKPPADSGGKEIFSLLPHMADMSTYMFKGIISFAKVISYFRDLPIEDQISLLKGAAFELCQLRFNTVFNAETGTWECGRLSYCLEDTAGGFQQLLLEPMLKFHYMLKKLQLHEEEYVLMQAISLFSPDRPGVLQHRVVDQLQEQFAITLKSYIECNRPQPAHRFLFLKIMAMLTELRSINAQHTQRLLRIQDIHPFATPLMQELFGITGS
Protocol: 1) Information of Cell Line
DPX2 (HepG2 cells stably transfected with PXR and luciferase reporter) cells were purchased from Puracyp Inc (Carlsbad, CA).
2) Experimental Procedures a) Reagents and Consumables
The DPX2 cells were cultured in the growth medium containing 1000 fetal bovine serum. The DPX2 cells in a T-75 flask were cultured in the […] incubator at 37° C. with 950% relative humidity, and digested when the cells grew to cover 80-90% of the bottom of the flask.
The surface layer of the T-75 cultured cells was washed with 10 mL of PBS; PBS was pipetted; 3-5 mL of tryp sin was added; the cells were digested at 37° C. for 5 minutes or until the cells were digested to be suspended; and excessive medium containing fetal bovine serum was added to stop trypsinization. The cell suspension was transferred to a conical-bottomed centrifuge tube and centrifuged at 150 g rpm for 5 minutes at room temperature; the supernatant was carefully pipetted; and the cells were resuspended with the treatment medium, with the concentration adjusted to 3.2×10^5 cells/mL (incubation time: 24 hours, plate seeding density: […]). 25 μL of the cell suspension was added to each well of the 384-well cell culture plate.
The cell culture plate was placed and cultured for 24 h in the […] incubator with 9500 humidity at 37° C. c) Formulation of Compound
The stock solution of each of 1000× test compound, the positive control (rifampicin), and the negative control (propranolol) was prepared with DMSO. The final concentrations of the positive control (rifampicin) were 1 μM and 10 μM, and the final concentration of the negative control (propranolol) was 10 μM. The final concentrations of the test compound were 10 μM, 1 μM, 0.1 μM, or EC50 (30 μM, 10 μM, 3 μM, 1 μM, 0.3 μM, 0.1 μM). The final concentration of DMSO was 0.10. The cell culture plate was taken out from the incubator, and 25 nL of the stock solution of the positive control, negative control or test compound was directly added with Echo, each with three parallel concentrations. The cell culture plate was placed in the incubator and continued to be incubated for 24 h. Before starting the assay with the substrate, the cell morphology and the monolayer integrity were checked to ensure that the monolayer was of acceptable research quality. […]
d) Quantitative Detection with PXR Activation
After 24 hours of dosing, the culture could be quantitatively detected with PXR activation. The CellTiter-Fluor™ Cell Viability Assay Kit and One-Glo Luciferase reagent were equilibrated to room temperature. The GF-AFC substrate (10 μL) was added to the assay buffer (10 ml) to develop a 2× reagent, which was then diluted into a 1× reagent with 10 ml of PBS. The ONE-Glo Luciferase substrate was added to the ONE-Glo Luciferase assay buffer. The culture plate was taken out from the incubator; the medium was discarded; 1× of CellTiter-Fluor™ reagent was poured into the loading slot; 25 μL of reagent were added per well to the culture plate with a pipetting workstation; and the culture plate was then incubated in the incubator for 30 minutes. The cell culture plate was taken out from the incubator, and cooled slightly to room temperature; and the fluorescence value was determined with a fully automatic quantitative microplate reader, with the excitation light of 400 nm and the emission light of 505 nm. The ONE-Glo reagent was poured into the loading slot, with 25 μL per well, and the resulting mixture was gently mixed in the plate, and incubated at room temperature for 5 minutes to determine the luminescence value.

[3] = tested on: HCC1806; experiment: Cell viability assay (CellTiter-Glo); format: cell-based, Human; conditions: HCC1806, 7 days, CellTiter-Glo, read-out: IC50 (nM) in cell viability assay
[4] = tested on: Human breast squamous carcinoma cells HCC1806; experiment: Cell function assay (In-Cell Western, PAR/pADPr after MMS); format: cell-based; conditions: read-out: IC50 (nM) in cell function assay
How it was run: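 HCC1806 cells adhered 24 h at 37 °C, 5% CO2, then were pretreated 1 h with compound (30000 nM down to 1 nM, plus 0 nM) or DMSO. MMS was then added at 0.5 mM final for 1 h before In-Cell Western detection of PAR/pADPr.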

[5] = 4 nM PARG, 66.2 uM TFMU-ADPr, 3 min at room temperature
[6] = HCC1806, In-Cell Western, MMS treatment
[7] = HCC1806, compound 1 h then 0.5 mM MMS 1 h, PAR/pADPr antibody, In-Cell Western

PARG, sequence (Q86W56 whole entry): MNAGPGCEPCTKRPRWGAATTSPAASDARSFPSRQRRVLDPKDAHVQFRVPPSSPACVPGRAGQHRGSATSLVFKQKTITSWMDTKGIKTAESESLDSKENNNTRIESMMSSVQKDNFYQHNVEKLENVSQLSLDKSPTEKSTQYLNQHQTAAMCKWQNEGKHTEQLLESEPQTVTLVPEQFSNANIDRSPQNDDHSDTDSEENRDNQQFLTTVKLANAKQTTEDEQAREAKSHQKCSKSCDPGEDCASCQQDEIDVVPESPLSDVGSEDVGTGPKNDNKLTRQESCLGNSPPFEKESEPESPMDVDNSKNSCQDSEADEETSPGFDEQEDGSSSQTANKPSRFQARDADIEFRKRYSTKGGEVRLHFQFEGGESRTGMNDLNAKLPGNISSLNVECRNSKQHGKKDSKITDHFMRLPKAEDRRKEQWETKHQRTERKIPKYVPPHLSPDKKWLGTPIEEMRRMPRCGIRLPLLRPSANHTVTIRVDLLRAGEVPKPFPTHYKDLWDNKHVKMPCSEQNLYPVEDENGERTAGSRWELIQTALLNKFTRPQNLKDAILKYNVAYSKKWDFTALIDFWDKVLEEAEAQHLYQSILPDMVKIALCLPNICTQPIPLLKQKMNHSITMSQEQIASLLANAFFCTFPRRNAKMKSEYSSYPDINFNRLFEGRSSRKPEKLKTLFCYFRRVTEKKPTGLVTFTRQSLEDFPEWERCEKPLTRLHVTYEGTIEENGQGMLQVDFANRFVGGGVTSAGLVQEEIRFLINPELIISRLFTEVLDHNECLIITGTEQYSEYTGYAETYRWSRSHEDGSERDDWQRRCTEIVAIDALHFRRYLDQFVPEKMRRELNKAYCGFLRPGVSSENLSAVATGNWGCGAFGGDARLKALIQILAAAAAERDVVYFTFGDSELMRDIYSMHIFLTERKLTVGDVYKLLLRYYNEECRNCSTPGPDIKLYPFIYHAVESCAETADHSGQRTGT

| Structure (SMILES) | IC50 ([1]; PARG, TFMU-ADPr substrate) [nM] | PXR Activation @30 uM (Fold) [2] [Fold] | PXR Activation @30 uM (% Ctrl) [2] [% Ctrl] | IC50 ([3]; Homo sapiens, HCC1806, 168 h) [nM] | IC50 [1, 5] [nM] | IC50 [3] [nM] | IC50 [4, 6] [nM] | IC50 [4, 7] [nM] |
| --- | --- | --- | --- | --- | --- | --- | --- | --- |
| CC1(NS(=O)(=O)c2cc(N3CCN(c4ccc[nH]c4=O)CC3)c3cnc(-c4nnc(C(F)(F)F)s4)n3c2)CC1 [Example 336, N-(1-methylcyclopropyl)-8-(4-(2-oxo-1,2-dihydropyridin-3-yl)piperazin-1-yl)-3-(5-(trifluoromethyl)-1,3,4-thiadiazol-2-yl)imidazo[1,5-a]pyridine-6-sulfonamide] | 54.1 | 0.3 | 2 | 1080 |  |  |  |  |
| CC1(NS(=O)(=O)c2cc(N3CCN(C(=O)[C@H]4CCCN4)CC3)c3cnc(-c4nnc(C(F)(F)F)s4)n3c2)CC1 [Example 324, (R)-N-(1-methylcyclopropyl)-8-(4-prolylpiperazin-1-yl)-3-(5-(trifluoromethyl)-1,3,4-thiadiazol-2-yl)imidazo[1,5-a]pyridine-6-sulfonamide] | 4.29 | 1.8 | 14 | 205 |  |  |  |  |
| N#CC1(NS(=O)(=O)c2cc(N3CCN(C(=O)c4ccncc4)CC3)c3cnc(-c4nnc(C(F)(F)F)s4)n3c2)CC1 [Example 254, N-(1-cyanocyclopropyl)-8-(4-isonicotinoylpiperazin-1-yl)-3-(5-(trifluoromethyl)-1,3,4-thiadiazol-2-yl)imidazo[1,5-a]pyridine-6-sulfonamide] | 11.5 | 1.6 | 12 | 700 |  |  |  |  |
| COC1(C(=O)N2CCN(c3cc(S(=O)(=O)NC4(C)CC4)cn4c(-c5nnc(C(F)F)s5)ncc34)CC2)CNC1 [Example 311, 3-(5-(difluoromethyl)-1,3,4-thiadiazol-2-yl)-8-(4-(3-methoxyazetidine-3-carbonyl)piperazin-1-yl)-N-(1-methylcyclopropyl)imidazo[1,5-a]pyridine-6-sulfonamide] | 0.21 | 1.1 | 5 | 234 |  |  |  |  |
| COC1(C(=O)N2CCN(c3cc(S(=O)(=O)NC4(C)CC4)cn4c(-c5nnc(C(F)(F)F)s5)ncc34)CC2)CC1 [Example 193, 8-(4-(1-methoxycyclopropane-1-carbonyl)piperazin-1-yl)-N-(1-methylcyclopropyl)-3-(5-(trifluoromethyl)-1,3,4-thiadiazol-2-yl)imidazo[1,5-a]pyridine-6-sulfonamide] | 0.36 | 2.4 | 15 | 5.76 |  |  |  |  |
| CC(C)C(=O)N1CC=C(c2cc(S(=O)(=O)NC3(C#N)CC3)cn3c(-c4nnc(C(F)F)s4)cnc23)CC1 [Example 12, N-(1-cyanocyclopropyl)-3-(5-(difluoromethyl)-1,3,4-thiadiazol-2-yl)-8-(1-isobutyryl-1,2,3,6-tetrahydropyridin-4-yl)imidazo[1,2-a]pyridine-6-sulfonamide] | 2.4 |  |  | < 500 | < 100 | 500 | 9.15 |  |
| C[C@@H]1CN(c2cc(S(=O)(=O)NC3(C#N)CC3)cn3c(-c4nnc(C(F)F)s4)ncc23)CCN1C(=O)C1CC1 [Example 75, (R)-N-(1-cyanocyclopropyl)-8-(4-(cyclopropanecarbonyl)-3-methylpiperazin-1-yl)-3-(5-(difluoromethyl)-1,3,4-thiadiazol-2-yl)imidazo[1,5-a]pyridine-6-sulfonamide] | 13.2 |  |  | < 500 | < 100 | 370 | 3.78 | < 100 |
| CC(C)C(=O)N1CCN(c2cc(S(=O)(=O)NC3(CF)CC3)cn3c(-c4nnc(C(F)F)s4)nnc23)CC1 [Example 100, 3-(5-(difluoromethyl)-1,3,4-thiadiazol-2-yl)-N-(1-(fluoromethyl)cyclopropyl)-8-(4-isobutyrylpiperazin-1-yl)-[1,2,4]triazolo[4,3-a]pyridine-6-sulfonamide] | 1.99 |  |  | < 500 | < 100 | 448 | 4.96 | < 100 |
| C[C@@H]1CN(c2cc(S(=O)(=O)NC3(C#N)CC3)cn3c(-c4nnc(C(F)F)s4)nc(Cl)c23)CCN1C(=O)C1(C)CC1 [Example 123, (R)-1-chloro-N-(1-cyanocyclopropyl)-3-(5-(difluoromethyl)-1,3,4-thiadiazol-2-yl)-8-(3-methyl-4-(1-methylcyclopropane-1-carbonyl)piperazin-1-yl)imidazo[1,5-a]pyridine-6-sulfonamide] | 9.12 |  |  | 500 to 5000 | < 100 | 584 | 7.13 | < 100 |
| N#CC1(NS(=O)(=O)c2cc(N3CCN(C(=O)C4CC(F)(F)C4)CC3)c3cnc(-c4nnc(C(F)F)s4)n3c2)CC1 [Example 146, N-(1-cyanocyclopropyl)-8-(4-(3,3-difluorocyclobutane-1-carbonyl)piperazin-1-yl)-3-(5-(difluoromethyl)-1,3,4-thiadiazol-2-yl)imidazo[1,5-a]pyridine-6-sulfonamide] | 11.5 |  |  | 500 to 5000 | < 100 | 692 | 28.9 | < 100 |
| [2H]c1nc(-c2nnc(C(F)F)s2)n2cc(S(=O)(=O)NC3(C)COC3)c(F)c(N3CCN(C(=O)C(C)C)CC3)c12 [Example 155, 3-(5-(difluoromethyl)-1,3,4-thiadiazol-2-yl)-7-fluoro-8-(4-isobutyrylpiperazin-1-yl)-N-(3-methyloxetan-3-yl)imidazo[1,5-a]pyridine-6-sulfonamide-1-d] | 1.68 |  |  | 500 to 5000 | < 100 | 727 | 39.1 | 100 to 500 |
| CC(C)C(=O)N1CCN(c2cc(S(=O)(=O)NC3(C)CCOC3)cn3c(-c4nnc(C(F)F)s4)ncc23)CC1 (stereo not drawn) [Example 58, 3-(5-(difluoromethyl)-1,3,4-thiadiazol-2-yl)-8-(4-isobutyrylpiperazin-1-yl)-N-(3-methyltetrahydrofuran-3-yl)imidazo[1,5-a]pyridine-6-sulfonamide] | 25.1 |  |  | > 30000 | < 100 |  | 2870 | > 1000 |
